This passage reports EC50 and IC50 results from patent US20250368633A1, “AZEPINE FUSED RING COMPOUND AS RIPK1 INHIBITOR AND USE THEREOF” (ARTIVILA BIOPHARMA, priority 2022, published 2025).

A value given as a limit tells only on which side of the number the result lay.

The test system of one assay is U937 cells. Briefly: EC50 of necroptosis inhibition in U937 cells (TSZ-induced, CellTiter-Glo). In kind it is cell-based. The conditions noted are these: Homo sapiens, U-937; TSZ (hTNF-α, SM-164, Z-VAD-FMK) 20 hours; 10 concentration points; read-out: EC50 intervals of necroptosis inhibition in U937 cells. The method in brief: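 Luminescent ATP readout (CellTiter-Glo) after 20 h gave viability of TSZ-challenged U937 cells; compounds were added 15 min ahead of TNF-α/SM-164/Z-VAD-FMK. EC50 derived by variable-slope nonlinear regression of inhibition relative to no-TSZ and TSZ-alone controls.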

The target of a further assay is T1, RIPK1 kinase (Homo sapiens, UniProt Q13546).
T1 construct: purchased Promega VA7593
T1 sequence (Q13546 1-671): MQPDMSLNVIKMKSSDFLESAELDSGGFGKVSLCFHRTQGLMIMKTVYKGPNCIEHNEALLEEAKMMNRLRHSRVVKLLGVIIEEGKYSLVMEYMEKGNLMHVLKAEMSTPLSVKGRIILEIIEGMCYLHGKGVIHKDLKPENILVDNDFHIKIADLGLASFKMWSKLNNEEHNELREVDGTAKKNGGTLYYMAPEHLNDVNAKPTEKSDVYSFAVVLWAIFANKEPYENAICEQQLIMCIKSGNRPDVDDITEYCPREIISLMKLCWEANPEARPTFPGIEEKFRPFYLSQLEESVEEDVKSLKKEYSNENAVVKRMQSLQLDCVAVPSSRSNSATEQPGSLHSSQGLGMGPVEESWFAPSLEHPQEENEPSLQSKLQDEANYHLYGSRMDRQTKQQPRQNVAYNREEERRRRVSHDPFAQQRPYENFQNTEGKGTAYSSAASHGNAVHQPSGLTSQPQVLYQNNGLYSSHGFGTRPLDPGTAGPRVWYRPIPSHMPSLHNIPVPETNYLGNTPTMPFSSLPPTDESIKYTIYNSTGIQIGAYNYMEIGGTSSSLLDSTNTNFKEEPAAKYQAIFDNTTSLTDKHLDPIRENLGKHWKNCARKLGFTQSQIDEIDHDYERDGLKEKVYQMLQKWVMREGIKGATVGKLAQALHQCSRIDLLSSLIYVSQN
The assay can be described thus: In vitro RIPK1 kinase activity IC50 assay (ADP-Glo). The format is biochemical. The settings on record: ATP 10 μM; MBP substrate 100 μg/mL; 8 concentration points; read-out: IC50 range of compounds for RIPK1 kinase activity. The procedure:
RIPK1 kinase activity was assayed using the ADP-Glo assay and RIPK1 kinase reaction system (Promega, catalog number: VA7593). The RIPK1 kinase activity assay was performed according to the Promega kit manual.
The experimental method was briefly described as below. The concentration of RIPK1 kinase in the RIPK1 kinase reaction system was determined by kinase titration and S/B10. The compound was diluted with 1× kinase buffer D (1% DMSO), 1 μL of 1 mM compound DMSO stock solution was added to 19 μL 1× kinase buffer D, and the compound was serially diluted with 1× kinase buffer D at a ratio of 1:5, for a total of 8 concentration points, and a control with the same DMSO volume was set. RIPK1 kinase was diluted with 1× kinase buffer D. 2.5×ATP/substrate was diluted with 1× kinase buffer D. The final concentration of ATP in the kinase reaction system was 10 μM. The final concentration of MBP substrate was 100 μg/mL. 1 μL of diluted compound and 2 μL of diluted RIPK1 kinase were mixed, incubated at room temperature for 15 minutes, 2 μL of 2.5×ATP/substrate was added, mixed, and incubated at room temperature for 1 hour. 5 μL ADP-Glo reagent was added to each well and incubated at room temperature for 1 hour. 10 μL ADP detection reagent was added to each well and incubated at room temperature for another 0.5-1 hour. The chemiluminescent signal was read with a microplate reader and the kinase activity inhibition rate was calculated. IC50 was obtained by fitting the nonlinear regression curve log [inhibitor] vs. response-variable slope (four parameters) in GraphPad Prism.
For orientation: ADP-Glo turns the ADP formed in a reaction into a luminescent signal.

What is called EC50 is the concentration giving half of the maximal effect. Broadly, the IC50 is the concentration at which inhibition is half-maximal. Regarding `CC(Cc1ccccc1)NC(=O)C(=O)N[C@H]1COc2ccc(C#CCCO)cc2N(C)C1=O` (mixture of isomers) [Example 37, N^1-((S)-7-(4-hydroxybut-1-yn-1-yl)-5-methyl-4-oxo-2,3,4,5-tetrahydrobenzo[b][1,4]oxazepin-3-yl)-N^2-(1-phenylpropan-2-yl)oxalamide], in the assay on U937 cells, the EC50 lay in the range of 100 to 500 nM. The IC50 on RIPK1 kinase is less than 100 nM.
On the same counts, the results for `CC(NC(=O)C(=O)N[C@H]1COc2ccc(C#CCCO)cc2N(C)C1=O)c1ccccc1` (mixture of isomers) [Example 41, N^1-((S)-7-(4-hydroxybut-1-yn-1-yl)-5-methyl-4-oxo-2,3,4,5-tetrahydrobenzo[b][1,4]oxazepin-3-yl)-N^2-(1-phenylethyl)oxalamide] are less than 100 nM and less than 100 nM.
The matching figures for `CN1CCC(CC#Cc2ccc3c(c2)N(C)C(=O)[C@@H](NC(=O)C(=O)NCCc2ccccc2)CO3)C1=O` (mixture of isomers) [Example 82, N^1-((3S)-5-methyl-7-(3-(1-methyl-2-oxopyrrolidin-3-yl)prop-1-yn-1-yl)-4-oxo-2,3,4,5-tetrahydrobenzo[b][1,4]oxazepin-3-yl)-N^2-phenethyloxalamide]: less than 100 nM and less than 100 nM.
On the same counts, the results for `CN1C(=O)[C@@H](NC(=O)C(=O)NCCc2cccc(F)c2)COc2ccc(C#CCN3CCC(O)C3)cc21` (mixture of isomers) [Example 113, N^1-(3-fluorophenethyl)-N^2-((3S)-7-(3-(3-hydroxypyrrolidin-1-yl)prop-1-yn-1-yl)-5-methyl-4-oxo-2,3,4,5-tetrahydrobenzo[b][1,4]oxazepin-3-yl)oxalamide] are less than 100 nM and less than 100 nM.
Turning to `C[C@@H](NC(=O)C(=O)N[C@H]1COc2ccc(C#CCN3CCC(O)C3)cc2N(C)C1=O)c1ccccc1` (mixture of isomers) [Example 126, N^1-((3S)-7-(3-(3-hydroxypyrrolidin-1-yl)prop-1-yn-1-yl)-5-methyl-4-oxo-2,3,4,5-tetrahydrobenzo[b][1,4]oxazepin-3-yl)-N^2-((R)-1-phenylethyl)oxalamide], in the assay on U937 cells, the EC50 is less than 100 nM. In addition, the IC50 at RIPK1 kinase was less than 100 nM.
Consider `CC(CNC(=O)C(=O)N[C@H]1COc2ccc(C#CCCO)cc2N(C)C1=O)c1ccccc1` (mixture of isomers) [Example 154, N^1-((S)-7-(4-hydroxybut-1-yn-1-yl)-5-methyl-4-oxo-2,3,4,5-tetrahydrobenzo[b][1,4]oxazepin-3-yl)-N^2-(2-phenylpropyl)oxalamide], for which, in the assay with U937 cells, the EC50 was less than 100 nM. Besides, on RIPK1 kinase, the IC50 is less than 100 nM.
As to `CN1C(=O)[C@@H](NC(=O)C(=O)NCCc2ccccc2)COc2ccc(C#Cc3cccnc3)cc21` [Example 13, (S)—N^1-(5-methyl-4-oxo-7-(pyridin-3-ylethynyl)-2,3,4,5-tetrahydrobenzo[b][1,4]oxazepin-3-yl)-N^2-phenethyloxalamide], in the assay with U937 cells, the EC50 is less than 100 nM. On RIPK1 kinase, the IC50 was less than 100 nM.
For the molecule `CN1C(=O)[C@@H](NC(=O)C(=O)NCCc2ccccc2)COc2ccc(C#Cc3ccsc3)cc21` [Example 17, (S)—N^1-(5-methyl-4-oxo-7-(thiophen-3-ylethynyl)-2,3,4,5-tetrahydrobenzo[b][1,4]oxazepin-3-yl)-N^2-phenethyloxalamide], the EC50 in the assay on U937 cells was less than 100 nM. In addition, the IC50 on RIPK1 kinase is less than 100 nM.
Turning to `CN1C(=O)[C@@H](NC(=O)C(=O)NCCc2ccccc2)COc2ccc(C#C[Si](C)(C)C)cc21` [Example 18, (S)—N^1-(5-methyl-4-oxo-7-((trimethylsilyl)ethynyl)-2,3,4,5-tetrahydrobenzo[b][1,4]oxazepin-3-yl)-N^2-phenethyloxalamide], the EC50 in the assay with U937 cells was less than 100 nM. Besides, on RIPK1 kinase, the IC50 was less than 100 nM.
For `CC#Cc1ccc2c(c1)N(C)C(=O)[C@@H](NC(=O)C(=O)NCCc1ccccc1)CO2` [Example 19, (S)—N^1-(5-methyl-4-oxo-7-(prop-1-yn-1-yl)-2,3,4,5-tetrahydrobenzo[b][1,4]oxazepin-3-yl)-N^2-phenethyloxalamide], the EC50 with U937 cells is less than 100 nM. Also, the half-inhibitory concentration (IC50) on RIPK1 kinase was less than 100 nM.
For `CN1C(=O)[C@@H](NC(=O)C(=O)NCCc2ccccc2)COc2ccc(C#CC3CCOCC3)cc21` [Example 21, (S)—N^1-(5-methyl-4-oxo-7-((tetrahydro-2H-pyran-4-yl)ethynyl)-2,3,4,5-tetrahydrobenzo[b][1,4]oxazepin-3-yl)-N^2-phenethyloxalamide], in the assay with U937 cells, the EC50 was less than 100 nM. For the same molecule, at RIPK1 kinase, the IC50 was less than 100 nM.
`CN1C(=O)[C@@H](NC(=O)C(=O)NCCc2ccccc2)COc2ccc(C#Cc3cnn(C)c3)cc21` [Example 22, (S)—N^1-(5-methyl-7-((1-methyl-1H-pyrazol-4-yl)ethynyl)-4-oxo-2,3,4,5-tetrahydrobenzo[b][1,4]oxazepin-3-yl)-N^2-phenethyloxalamide]: the EC50 in the assay on U937 cells is less than 100 nM. Moreover, at RIPK1 kinase, the IC50 is less than 100 nM.
As for `CN1C(=O)[C@@H](NC(=O)C(=O)NCCc2ccccc2)COc2ccc(C#CC3CCCNC3)cc21` (stereo partly drawn) [Example 24, N^1-((3S)-5-methyl-4-oxo-7-(piperidin-3-ylethynyl)-2,3,4,5-tetrahydrobenzo[b][1,4]oxazepin-3-yl)-N^2-phenethyloxalamide], the concentration for a half-maximal effect (EC50) with U937 cells was less than 100 nM. For the same molecule, the IC50 at RIPK1 kinase was less than 100 nM.
`CN1C(=O)[C@@H](NC(=O)C(=O)NCCc2ccccc2)COc2ccc(C#Cc3cnc4cccnn34)cc21` [Example 25, (S)—N^1-(7-(imidazo[1,2-b]pyridazin-3-ylethynyl)-5-methyl-4-oxo-2,3,4,5-tetrahydrobenzo[b][1,4]oxazepin-3-yl)-N^2-phenethyloxalamide]: in the assay on U937 cells, the EC50 was less than 100 nM. Further, at RIPK1 kinase, the IC50 was less than 100 nM.
Consider `CN1C(=O)[C@@H](NC(=O)C(=O)NCCc2ccccc2)COc2ccc(C#CC(C)(C)O)cc21` [Example 29, (S)—N^1-(7-(3-hydroxy-3-methylbut-1-yn-1-yl)-5-methyl-4-oxo-2,3,4,5-tetrahydrobenzo[b][1,4]oxazepin-3-yl)-N^2-phenethyloxalamide], for which the EC50 in the assay with U937 cells is less than 100 nM. The IC50 on RIPK1 kinase is less than 100 nM.
For `CN1C(=O)[C@@H](NC(=O)C(=O)NCCc2ccccc2)COc2ccc(C#CCCO)cc21` [Example 31, (S)—N^1-(7-(4-hydroxybut-1-yn-1-yl)-5-methyl-4-oxo-2,3,4,5-tetrahydrobenzo[b][1,4]oxazepin-3-yl)-N^2-phenethyloxalamide], the concentration giving a half-maximal response (EC50) in the assay with U937 cells was less than 100 nM. Moreover, on RIPK1 kinase, the concentration for half-maximal inhibition (IC50) was less than 100 nM.
As to `CN1C(=O)[C@@H](NC(=O)C(=O)NCc2ccccc2)COc2ccc(C#CCCO)cc21` [Example 32, (S)—N^1-benzyl-N^2-(7-(4-hydroxybut-1-yn-1-yl)-5-methyl-4-oxo-2,3,4,5-tetrahydrobenzo[b][1,4]oxazepin-3-yl)oxalamide], the EC50 in the assay with U937 cells was less than 100 nM. Moreover, the IC50 on RIPK1 kinase is less than 100 nM.
Regarding `CN1C(=O)[C@@H](NC(=O)C(=O)NCCc2ccccc2F)COc2ccc(C#CCCO)cc21` [Example 33, (S)—N^1-(2-fluorophenethyl)-N^2-(7-(4-hydroxybut-1-yn-1-yl)-5-methyl-4-oxo-2,3,4,5-tetrahydrobenzo[b][1,4]oxazepin-3-yl)oxalamide], the EC50 in the assay with U937 cells was less than 100 nM. Further, on RIPK1 kinase, the half-maximal inhibitory concentration (IC50) was less than 100 nM.
Take `CN1C(=O)[C@@H](NC(=O)C(=O)NCCc2cccc(F)c2)COc2ccc(C#CCCO)cc21` [Example 34, (S)—N^1-(3-fluorophenethyl)-N^2-(7-(4-hydroxybut-1-yn-1-yl)-5-methyl-4-oxo-2,3,4,5-tetrahydrobenzo[b][1,4]oxazepin-3-yl)oxalamide]: in the assay with U937 cells, the EC50 was less than 100 nM. Moreover, the IC50 on RIPK1 kinase was less than 100 nM.
